Measurements as given in patent publication US20220386611A1, “NOVEL HETEROARYL-TRIAZOLE COMPOUNDS AS PESTICIDES” (Bayer Aktiengesellschaft, priority 2019, published 2022).

Tests used:
Format in all cases: in vivo
[1] = tested on: Rhipicephalus microplus larvae (strain Parkhurst, resistant against synthetic pyrethroids); assay: Rhipicephalus (Boophilus) microplus in-vitro contact test, larval cattle tick; conditions: 5 μg/cm^2 (=500 g/ha), after 48 hours, read-out: efficacy (larvae dead or moribund)
Description: Rhipicephalus (Boophilus) Microplus—In-Vitro Contact Tests Larval Cattle Tick (Strain Parkhurst, Resistant Against Synthetic Pyrethroids)
(§1) 9 mg compound is solved in 1 mL acetone and diluted with acetone to the desired concentration. 250 μL of the test solution is filled in 25 mL glass test tubes and homogeneously distributed on the inner walls by rotation and tilting on a shaking device (2 h at 30 rpm). With a compound concentration of 900 ppm, an inner surface of 44.7 cm^2 and a homogeneous distribution, a dose of 5 μg/cm^2 is achieved.
After the solvent has evaporated, each test tube is filled with 20-50 cattle tick larvae (Rhipicephalus microplus), closed with a perforated lid and incubated in a horizontal position at 85% relative humidity and 27° C. in an incubator. After 48 hours efficacy is determined. The larvae are patted on the ground of the tubes and negative geotactic behaviour is recorded.
An efficacy of 100% means all larvae are dead or moribund; 0% means no larvae are dead or moribund.

[2] = tested on: adult cat fleas (Ctenocephalides felis); assay: Ctenocephalides felis in-vitro contact test, adult cat flea; conditions: after 48 hours, read-out: efficacy (fleas dead or moribund); for pest or weed control at 5 µg/cm2, 500 g/ha: 5 μg/cm^2 (=500 g/ha)
Description: as §1, with “Ctenocephalides felis—In-Vitro Contact Tests Adult Cat Flea 9 mg” for “9 mg”
After the solvent has evaporated, each test tube is filled with 5-10 adult cat fleas (Ctenocephalidesfelis), closed with a perforated lid and incubated in a lying position at room temperature and relative humidity.
(§2) After 48 hours efficacy is determined. The fleas are patted on the ground of the tubes and are incubated on a heating plate at 45-50° C. for at most 5 minutes. Immotile or uncoordinated moving fleas, which are not able to escape the heat by climbing upwards, are marked as dead or moribund.
An efficacy of 100% means all fleas are dead or moribund; 0% means no fleas are dead or moribund.

[3] = tested on: adult unfed cat fleas (Ctenocephalides felis); assay: Ctenocephalides felis oral test; conditions: 48 h
Description: Ctenocephalides felis—Oral Test
(§3) Solvent: dimethyl sulfoxide
To produce a suitable preparation of active compound, 10 mg of active compound are dissolved in 0.5 ml solvent, and the concentrate is diluted with cattle blood to the desired concentration.
Approximately 20 adult unfed cat fleas (Ctenocephalides felis) are placed in flea chambers. The blood chamber, sealed with parafilm on the bottom, are filled with cattle blood supplied with compound solution and placed on the gauze covered top of the flea chamber, so that the fleas are able to suck the blood. The blood chamber is heated to 37° C. whereas the flea chamber is kept at room temperature.
After 2 days mortality in % is determined. 100% means all the fleas have been killed; 0% means none of the fleas have been killed.

[4] = tested on: adult brown dog ticks (Rhipicephalus sanguineus); assay: Rhipicephalus sanguineus in-vitro contact test with adult brown dog ticks; conditions: 5 μg/cm^2 (=500 g/ha), after 48 hours, read-out: efficacy (ticks dead or moribund)
Description: Rhipicephalus sanguineus—In-Vitro Contact Tests with Adult Brown Dog Ticks
as §1
as §2, with “After the solvent has evaporated, each test tube is filled with 5-10 adult brown dog ticks (Rhipicephalus sanguineus), closed with a perforated lid and incubated in a lying position at room temperature and relative humidity. After” for “After”, “ticks” for “fleas”, “ticks,” for “fleas,”
An efficacy of 100% means all ticks are dead or moribund; 0% means no ticks are dead or moribund.

[5] = tested on: larvae of the banded cucumber beetle (Diabrotica balteata); assay: Diabrotica balteata spray test; conditions: 168 h, 100 g/ha (=32 μg/well), after 7 days, wheat seeds, read-out: efficacy (seedlings grown like untreated, uninfected control)
Description: Diabrotica balteata—spray test
Solvent: 78.0 parts by weight of acetone
1.5 parts by weight of dimethylformamide
(§4) Emulsifier: alkylarylpolyglycol ether
(§5) To produce a suitable preparation of active compound, 1 part by weight of active compound is mixed with the stated amount of solvent, and the concentrate is diluted with water, containing an emulsifier concentration of 1000 ppm, to the desired concentration. Further test concentrations are prepared by dilution with emulsifier containing water.
Soaked wheat seeds (Triticum aestivum) are placed in a multiple well plate filled with agar and some water and are incubated for 1 day to germinate (5 seeds per well). The germinated wheat seeds are sprayed with a test solution containing the desired concentration of the active ingredient. Afterwards each unit is infected with 10-20 larvae of the banded cucumber beetle (Diabrotica balteata).
After 7 days efficacy in % is determined. 100% means all the seedlings have grown up like in the untreated, uninfected control; 0% means none of the seedlings have grown.

[6] = tested on: green peach aphid (Myzus persicae); assay: Myzus persicae oral test; conditions: 120 h
Description: Solvent: 100 parts by weight acetone
To produce a suitable preparation of active compound, 1 part by weight of active compound is mixed with the stated amount of solvent, and the concentrate is diluted with water to the desired concentration. 50 μL compound solution is filled in microtiter plates and 150 μL IPL41 insect medium (33%+15% sugar) is added to obtain a total volume of 200 μL per well. Afterwards the plates are sealed with parafilm through which a mixed population of the green peach aphid (Myzus persicae) can suck on the compound preparation.
(§6) After 5 days mortality in % is determined. 100% means all aphids have been killed and 0% means none of the aphids have been killed.

[7] = tested on: green peach aphid (Myzus persicae); assay: Myzus persicae spray test; conditions: foliar, 120 h, after 5 days, Chinese cabbage leaf disks
Description: Myzus persicae—spray test
(§7) Solvent: 78.0 parts by weight acetone • 1.5 parts by weight dimethylformamide
as §4
as §5, with “solvents” for “solvent,”, “and” for “and the concentrate”
Chinese cabbage (Brassica pekinensis) leaf disks infected with all instars of the green peach aphid (Myzus persicae), are sprayed with a preparation of the active ingredient of the desired concentration.
as §6

[8] = tested on: fall armyworm larvae (Spodoptera frugiperda); assay: Spodoptera frugiperda spray test; conditions: in Zea mays, 168 h
Description: Spodoptera frukiperda—Spray Test
as §7, §4
as §5, with “solvents” for “solvent,”, “and” for “and the concentrate”
Maize (Zea mays) leaf sections are sprayed with a preparation of the active ingredient of the desired concentration. Once dry, the leaf sections are infested with fall armyworm larvae (Spodoptera frugiperda).
After 7 days mortality in % is determined. 100% means all caterpillars have been killed and 0% means none of the caterpillars have been killed.

[9] = tested on: adult engorged female ticks (Rhipicephalus microplus); assay: Rhipicephalus (Boophilus) microplus injection test; conditions: 168 h, after 7 days, read-out: efficacy (infertile eggs); for pest or weed control at 0.004 mg: 4 μg/animal; for pest or weed control at 0.02 mg: 20 μg/animal
Description: Rhipicephalus (Boophilus) microplus—Injection Test
as §3
To produce a suitable preparation of active compound, 10 mg of active compound are dissolved in 0.5 mL solvent, and the concentrate is diluted with solvent to the desired concentration.
Five adult engorged female ticks (Rhipicephalus microplus) are injected with 1 μL compound solution into the abdomen. The ticks are transferred into replica plates and incubated in a climate chamber.
After 7 days egg deposition of fertile eggs is monitored. Eggs where fertility is not visible are stored in a climate chamber till hatching after about 42 days. An efficacy of 100% means all eggs are infertile; 0% means all eggs are fertile.

[10] = tested on: Aedes aegypti strain MONHEIM; assay: Aedes aegypti test (AEDSAE surface treatment & contact assay); conditions: 24 hours after contact, read-out: efficacy (mortality)
Description: Aedes Aegypti Test (AEDSAE Surface Treatment & Contact Assay)
(§8) Solvent: Aceton+2000 ppm rapeseed oil methyl ester (RME)
(§9) In order to produce a sufficient, active ingredient containing solution it is necessary to solve the test compound in the solvent-mix (acetone at 2 mg/ml/RME 2000 ppm). This solution is pipetted onto a glazed tile and after evaporation of the acetone, adult mosquitoes of the species Aedes aegypti strain MONHEIM are placed onto the dried surface. The exposure time is 30 minutes. Mortality in percent (%) is determined 24 hours after contact of the insects to the treated surface. 100% mortality means that all tested insects are dead, whereas 0% means that no insect died.

[11] = tested on: Musca domestica strain WHO-N; assay: Musca domestica test (MUSCDO surface treatment & contact assay); conditions: surface concentration 20 mg/m^2, 30 minutes exposure, 24 hours after contact, read-out: efficacy (mortality)
Description: Musca domestica Test (MUSCDO Surface Treatment & Contact Assay)
as §8
as §9, with “flies” for “mosquitoes”, “Musca domestica” for “Aedes aegypti”, “WHO-N” for “MONHEIM”

Structure (SMILES) | pest or weed control at 5 µg/cm2 [1] | pest or weed control at 1 µg/cm2, 100 g/ha ([2]; 1 μg/cm^2 (=100 g/ha)) | pest or weed control at 5 µg/cm2, 500 g/ha [2] | mortality at 100 ppm [3] | pest or weed control at 5 µg/cm2, 500 g/ha [4] | pest or weed control at 32 µg/disc, 100 g/ha [5] | mortality at 4 ppm [6] | mortality at 100 g/ha [7] | mortality at 100 g/ha [8] | pest or weed control at 0.004 mg [9] | pest or weed control at 0.02 mg [9] | mortality at 4 mg/m2 ([10]; surface concentration 4 mg/m^2, 30 minutes exposure) | mortality at 20 mg/m2 ([10]; surface concentration 20 mg/m^2, 30 minutes exposure) | mortality at 20 mg/m2 [11]
CC(NC(=O)c1cc(Br)cc(OC(F)(F)F)c1)c1nc(I)nn1-c1ncccn1 (racemic) [Example I-020, 3-bromo-N-[1-(5-iodo-2-pyrimidin-2-yl-1,2,4-triazol-3-yl)ethyl]-5-(trifluoromethoxy)benzamide] | 100% | 100% | 100% | 100% | 100% | 100% | 100% | 90% | 100% | – | – | – | – | –
CC(NC(=O)c1cc(Cl)nc(Cl)c1)c1nc(Cl)nn1-c1ncccn1 (stereo not shown) [Example I-006] | 100% | – | 100% | 100% | 80% | 100% | 90% | 90% | – | 80% | – | – | – | –
CC(NC(=O)c1cc(Cl)cc(C(F)(F)F)c1)c1nc(Cl)nn1-c1ccc(Cl)cn1 (racemic) [Example I-017, 3-chloro-N-[1-[5-chloro-2-(5-chloro-2-pyridyl)-1,2,4-triazol-3-yl]ethyl]-5-(trifluoromethyl)benzamide] | 100% | – | – | – | – | 100% | – | – | 83% | 100% | 100% | – | – | –
CC(NC(=O)c1cc(Cl)cc(C(F)(F)F)c1)c1nc(Cl)nn1-c1ncccn1 (stereo not shown) [Example I-004] | 100% | – | – | 90% | 100% | 100% | 100% | – | 100% | 100% | 100% | 80 to 100% | 80 to 100% | –
CC(NC(=O)c1cncc(C(F)(F)F)c1)c1nc(Br)nn1-c1ncccn1 (stereo not shown) [Example I-015] | 100% | – | – | 100% | – | 80% | – | – | – | 100% | – | – | – | –
CC(NC(=O)c1cc(Br)cc(C(F)(F)F)c1)c1nc(Br)nn1-c1ncccn1 (racemic) [Example I-009, 3-bromo-N-[1-(5-bromo-2-pyrimidin-2-yl-1,2,4-triazol-3-yl)ethyl]-5-(trifluoromethyl)benzamide] | 100% | – | 80% | 100% | 100% | 100% | 100% | 70% | 67% | 100% | – | – | – | –
CC(NC(=O)c1cc(Cl)cc(C(F)(F)F)c1)c1nc(I)nn1-c1ccc(Cl)cn1 (racemic) [Example I-019, 3-chloro-N-[1-[2-(5-chloro-2-pyridyl)-5-iodo-1,2,4-triazol-3-yl]ethyl]-5-(trifluoromethyl)benzamide] | 90% | – | – | – | – | 100% | – | – | 100% | 100% | 100% | – | – | 80 to 100%
CC(NC(=O)c1cc(Cl)cc(Cl)c1)c1nc(Cl)nn1-c1ncccn1 (stereo not shown) [Example I-005] | – | – | – | 100% | 100% | 100% | – | – | 100% | 100% | 100% | – | – | –
CC(NC(=O)c1cc(Br)cc(C(F)(F)F)c1)c1nc(I)nn1-c1ncccn1 (stereo not shown) [Example I-022] | 100% | – | – | 90% | 80% | 100% | 100% | – | 100% | – | – | – | – | –
CC(NC(=O)c1cc(Br)cc(Br)c1)c1nc(I)nn1-c1ncccn1 (stereo not shown) [Example I-023] | – | – | – | 100% | – | – | – | – | – | – | – | – | – | –
